Assay results from patent publication EP0478445B1, “Composition for cleaning and decontaminating, in particular surgical instruments” (priority 1990, dated 1992).

Key:
[1] = Characteristics of the ingredients (pH, solubility); type: physicochemical
homme = settings: cited from earlier work
[2] = Irritancy of the ingredient

N|N'(N"-2-hydroxyéthyl-N"-carboxyéthylaminoéthyl) amidoacétate|-N,N-diméthyl-N-coco-ammoniumbétaine
solubilité [1]: soluble de façon limpide dans l'eau, l'éthanol, l'isopropanol
pH (à 10%) ([1]; at 10%): 8-9

C=O [formaldéhyde]
larmoiements (inhalation) (homme; man, inhalation): ≥ 0,1 ppm
oedème pulmonaire (homme; man, inhalation): 50 ppm
irritation oculaire superficielle (homme; some exposed persons): ≥ 0,4 ppm

CCCCCCCCC=CCCCCCCCC1=NCCN1CCO [1-hydroxyéthyl-2-heptadécényl-imidazoline]
solubilité [1]: soluble dans la plupart des solvants polaires et apolaires

CCCCCCCCCCCC[N+](C)(C)CC(=O)[O-] [lauryldiméthylcarboxyméthylammonium bétaine]
irritation des muqueuses et des yeux [2]: n'irrite ni les muqueuses ni les yeux
